Target: T1, endogenous BK channel (Rattus norvegicus, UniProt Q62976)
T1 construct: gene Kcnma1; endogenous BK in A7r5 smooth muscle cells
Experiment: whole-cell patch-clamp, paxilline-sensitive current density in A7r5 cells
Assay type: cell-based

T1 sequence (Q62976 whole entry): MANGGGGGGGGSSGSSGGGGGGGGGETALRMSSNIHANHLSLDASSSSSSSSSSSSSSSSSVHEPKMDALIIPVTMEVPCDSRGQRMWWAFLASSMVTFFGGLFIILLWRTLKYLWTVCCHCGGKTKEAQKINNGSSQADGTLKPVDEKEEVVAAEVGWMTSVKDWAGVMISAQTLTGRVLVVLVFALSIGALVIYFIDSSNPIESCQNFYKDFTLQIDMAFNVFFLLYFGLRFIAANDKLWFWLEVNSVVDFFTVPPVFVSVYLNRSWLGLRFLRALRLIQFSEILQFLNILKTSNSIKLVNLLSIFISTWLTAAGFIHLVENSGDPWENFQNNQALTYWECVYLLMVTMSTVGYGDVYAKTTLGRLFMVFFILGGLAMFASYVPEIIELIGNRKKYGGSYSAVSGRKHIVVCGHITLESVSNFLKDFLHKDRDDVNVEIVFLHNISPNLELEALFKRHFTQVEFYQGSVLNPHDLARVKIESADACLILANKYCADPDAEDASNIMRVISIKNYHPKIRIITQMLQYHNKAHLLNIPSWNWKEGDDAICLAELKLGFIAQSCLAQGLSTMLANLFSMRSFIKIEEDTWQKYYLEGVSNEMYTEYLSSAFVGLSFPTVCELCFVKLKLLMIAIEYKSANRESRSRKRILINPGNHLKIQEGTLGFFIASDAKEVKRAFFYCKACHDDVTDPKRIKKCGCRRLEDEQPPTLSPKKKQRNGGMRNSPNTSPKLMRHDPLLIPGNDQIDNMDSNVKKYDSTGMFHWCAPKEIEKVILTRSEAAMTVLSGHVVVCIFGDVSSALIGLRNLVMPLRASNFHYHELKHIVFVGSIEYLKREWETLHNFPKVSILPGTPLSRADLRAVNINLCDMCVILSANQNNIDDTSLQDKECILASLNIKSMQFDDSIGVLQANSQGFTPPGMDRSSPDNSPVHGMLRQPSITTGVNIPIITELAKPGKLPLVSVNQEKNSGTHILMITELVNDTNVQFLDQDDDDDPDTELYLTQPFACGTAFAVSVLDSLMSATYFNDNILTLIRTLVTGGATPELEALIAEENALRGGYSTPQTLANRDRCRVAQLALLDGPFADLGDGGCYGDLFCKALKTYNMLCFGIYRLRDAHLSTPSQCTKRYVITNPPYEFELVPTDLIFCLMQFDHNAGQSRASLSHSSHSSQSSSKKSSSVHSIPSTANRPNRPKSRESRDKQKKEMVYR

Question: COc1cc(/C=C/C(=O)CC(=O)/C=C/c2ccc(O)c(OC)c2)ccc1O [curcumin] was tested. Which EC50 did it give?
Answer: The EC50 was 6.93 ± 0.78 µM.
